Data as given in article PMC11872117, “Inhibitory effects of Kratom constituents, mitragynine and 7-hydroxymitragynine, on 4-methylumbelliferone glucuronidation by human UDP-glucuronosyltransferases” (Toxicology Reports, 2025).

Assays:
Type in all cases: biochemical
[1] = molecular target: T1, UGT1A3 (Homo sapiens, UniProt P35503); assay: 4MU glucuronidation, HPLC of 4MUG, Dixon plot
T1 construct: Supersome recombinant human enzyme (Corning), microsomal preparation
T1 sequence (P35503 29-534): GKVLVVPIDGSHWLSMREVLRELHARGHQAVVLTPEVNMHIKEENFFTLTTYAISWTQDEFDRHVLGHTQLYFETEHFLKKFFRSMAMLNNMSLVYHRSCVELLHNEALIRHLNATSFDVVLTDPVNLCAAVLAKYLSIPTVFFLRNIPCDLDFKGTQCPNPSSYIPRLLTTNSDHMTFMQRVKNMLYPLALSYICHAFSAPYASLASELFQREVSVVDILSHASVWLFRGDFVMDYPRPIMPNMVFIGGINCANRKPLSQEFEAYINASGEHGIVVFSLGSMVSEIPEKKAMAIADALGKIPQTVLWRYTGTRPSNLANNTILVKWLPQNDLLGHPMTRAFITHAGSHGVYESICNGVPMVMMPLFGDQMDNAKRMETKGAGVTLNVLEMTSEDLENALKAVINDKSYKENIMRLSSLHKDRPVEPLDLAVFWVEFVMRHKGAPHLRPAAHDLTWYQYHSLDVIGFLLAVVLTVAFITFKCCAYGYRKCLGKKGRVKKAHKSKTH
Source text: 4MU glucuronidation, HPLC of 4MUG, Dixon plot on UGT1A3

[2] = molecular target: T2, UGT1A9 (Homo sapiens, UniProt O60656); assay: 4MU glucuronidation, HPLC of 4MUG
T2 construct: Supersome recombinant human enzyme (Corning), microsomal preparation
T2 sequence (O60656 26-530): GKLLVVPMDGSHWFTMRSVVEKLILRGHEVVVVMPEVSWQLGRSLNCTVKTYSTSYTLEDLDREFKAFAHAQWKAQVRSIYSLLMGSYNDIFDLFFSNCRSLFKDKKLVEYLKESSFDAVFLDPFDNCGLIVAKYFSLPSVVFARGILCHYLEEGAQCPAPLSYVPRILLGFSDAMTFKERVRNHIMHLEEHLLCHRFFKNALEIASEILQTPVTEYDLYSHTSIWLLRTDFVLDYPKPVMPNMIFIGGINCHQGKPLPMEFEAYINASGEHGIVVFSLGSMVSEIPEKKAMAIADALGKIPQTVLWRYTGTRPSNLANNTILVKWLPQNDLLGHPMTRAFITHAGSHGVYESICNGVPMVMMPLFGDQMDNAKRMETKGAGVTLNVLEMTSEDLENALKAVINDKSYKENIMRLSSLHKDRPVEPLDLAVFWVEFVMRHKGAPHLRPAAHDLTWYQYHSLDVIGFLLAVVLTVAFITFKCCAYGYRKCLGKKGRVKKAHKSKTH
Source text: 4MU glucuronidation, HPLC of 4MUG on UGT1A9

[3] = molecular target: T3, UGT1A6 (Homo sapiens, UniProt P19224); assay: 4MU glucuronidation, HPLC of 4MUG
T3 construct: Supersome recombinant human enzyme (Corning), microsomal preparation
T3 sequence (P19224 27-532): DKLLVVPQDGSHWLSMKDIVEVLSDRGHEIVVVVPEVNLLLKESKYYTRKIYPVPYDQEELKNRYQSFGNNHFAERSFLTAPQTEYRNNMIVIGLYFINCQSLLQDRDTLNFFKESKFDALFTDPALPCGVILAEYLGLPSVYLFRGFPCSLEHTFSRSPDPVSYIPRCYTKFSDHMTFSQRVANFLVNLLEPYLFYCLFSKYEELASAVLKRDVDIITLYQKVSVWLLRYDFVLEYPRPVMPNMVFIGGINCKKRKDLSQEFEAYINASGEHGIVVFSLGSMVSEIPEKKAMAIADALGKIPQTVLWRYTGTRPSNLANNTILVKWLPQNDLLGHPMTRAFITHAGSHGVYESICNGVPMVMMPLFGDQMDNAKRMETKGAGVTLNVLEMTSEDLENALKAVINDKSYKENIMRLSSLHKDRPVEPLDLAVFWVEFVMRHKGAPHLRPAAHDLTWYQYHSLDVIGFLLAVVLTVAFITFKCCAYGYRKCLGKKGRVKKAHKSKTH
Source text: 4MU glucuronidation, HPLC of 4MUG on UGT1A6

[4] = molecular target: T4, UGT2B15 (Homo sapiens, UniProt P54855); assay: 4MU glucuronidation, HPLC of 4MUG
T4 construct: Supersome recombinant human enzyme (Corning), microsomal preparation
T4 sequence (P54855 24-530): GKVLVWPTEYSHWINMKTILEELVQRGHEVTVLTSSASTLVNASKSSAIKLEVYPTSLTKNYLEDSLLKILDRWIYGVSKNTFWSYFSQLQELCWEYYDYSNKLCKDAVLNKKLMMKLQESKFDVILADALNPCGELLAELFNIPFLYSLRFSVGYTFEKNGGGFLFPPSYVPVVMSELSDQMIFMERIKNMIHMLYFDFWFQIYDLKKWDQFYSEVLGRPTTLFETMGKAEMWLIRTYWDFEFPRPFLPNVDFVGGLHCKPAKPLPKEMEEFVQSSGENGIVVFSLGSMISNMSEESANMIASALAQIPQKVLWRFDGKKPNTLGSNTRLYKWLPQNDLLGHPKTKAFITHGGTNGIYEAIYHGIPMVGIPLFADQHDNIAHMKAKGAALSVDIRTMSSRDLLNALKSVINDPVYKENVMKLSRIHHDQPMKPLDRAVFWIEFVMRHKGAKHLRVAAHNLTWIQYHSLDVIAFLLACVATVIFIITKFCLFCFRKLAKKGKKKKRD
Source text: 4MU glucuronidation, HPLC of 4MUG on UGT2B15

[5] = molecular target: T2, UGT1A9; assay: 4MU glucuronidation, HPLC of 4MUG, Dixon plot
Source text: 4MU glucuronidation, HPLC of 4MUG, Dixon plot on UGT1A9

[6] = molecular target: T5, UGT2B7 (Homo sapiens, UniProt P16662); assay: 4MU glucuronidation, HPLC of 4MUG
T5 construct: Supersome recombinant human enzyme (Corning), microsomal preparation
T5 sequence (P16662 24-529): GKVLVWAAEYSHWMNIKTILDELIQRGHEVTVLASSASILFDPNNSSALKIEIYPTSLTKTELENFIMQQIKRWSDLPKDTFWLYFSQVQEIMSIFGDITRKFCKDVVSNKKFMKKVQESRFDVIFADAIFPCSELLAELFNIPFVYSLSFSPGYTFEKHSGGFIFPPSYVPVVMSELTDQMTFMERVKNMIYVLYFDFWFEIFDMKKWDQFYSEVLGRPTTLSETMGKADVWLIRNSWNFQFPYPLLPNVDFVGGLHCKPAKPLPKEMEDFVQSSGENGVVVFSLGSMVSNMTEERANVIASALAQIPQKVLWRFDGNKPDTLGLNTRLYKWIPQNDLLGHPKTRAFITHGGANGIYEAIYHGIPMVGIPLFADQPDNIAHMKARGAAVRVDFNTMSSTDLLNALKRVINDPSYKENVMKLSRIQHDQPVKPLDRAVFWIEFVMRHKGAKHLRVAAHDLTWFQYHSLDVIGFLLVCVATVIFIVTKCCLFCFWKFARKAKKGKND
Source text: 4MU glucuronidation, HPLC of 4MUG on UGT2B7

[7] = molecular target: T1, UGT1A3; assay: 4MU glucuronidation, HPLC of 4MUG
Source text: 4MU glucuronidation, HPLC of 4MUG on UGT1A3

[8] = molecular target: T6, UGT1A1 (Homo sapiens, UniProt P22309); assay: 4MU glucuronidation, HPLC of 4MUG
T6 construct: Supersome recombinant human enzyme (Corning), microsomal preparation
T6 sequence (P22309 26-533): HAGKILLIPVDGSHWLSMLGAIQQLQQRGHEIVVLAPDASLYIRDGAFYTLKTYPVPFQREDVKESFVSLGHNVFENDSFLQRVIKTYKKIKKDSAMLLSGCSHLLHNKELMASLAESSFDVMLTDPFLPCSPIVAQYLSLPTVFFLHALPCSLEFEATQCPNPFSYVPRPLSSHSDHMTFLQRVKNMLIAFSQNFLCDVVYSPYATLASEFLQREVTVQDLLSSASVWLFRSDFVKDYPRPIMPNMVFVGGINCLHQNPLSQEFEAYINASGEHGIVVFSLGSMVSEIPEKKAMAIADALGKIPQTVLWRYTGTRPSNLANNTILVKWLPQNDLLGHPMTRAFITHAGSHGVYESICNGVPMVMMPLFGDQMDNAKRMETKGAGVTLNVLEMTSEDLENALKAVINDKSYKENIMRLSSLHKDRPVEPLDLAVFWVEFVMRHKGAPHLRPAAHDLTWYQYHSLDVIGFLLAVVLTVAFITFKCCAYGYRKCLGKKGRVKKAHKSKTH
Source text: 4MU glucuronidation, HPLC of 4MUG on UGT1A1

**Q.** With `CC[C@@H]1CN2CCc3c([nH]c4cccc(OC)c34)[C@@H]2C[C@@H]1/C(=C\OC)C(=O)OC` [mitragynine] as the molecule, how does the Ki [1] read?
**A.** 45 ± 1.3 µM

**Q.** What about the IC50 [2] of the same molecule?
**A.** 131 ± 11 µM

**Q.** And the IC50 [3]?
**A.** 121 ± 44 µM

**Q.** And the IC50 [4]?
**A.** 152 ± 24 µM

**Q.** What about the Ki [5] of the same molecule?
**A.** 114 ± 13 µM

**Q.** What about the IC50 [6] of the same molecule?
**A.** > 200 µM

**Q.** And the IC50 [7]?
**A.** 72 ± 0.16 µM

**Q.** And the IC50 [8]?
**A.** > 200 µM
